According to ChEMBL document CHEMBL1909046, “DrugMatrix in vitro pharmacology data”:
Where a SMILES comes first, the peptide text is derived from it. Bridges are numbered along the chain shown (N, C = ends). [ ]: non-standard residue; d: D form. The star is where a group is joined. Threoninol(2S,3R) = C[C@@H](O)[C@H](CO)N*

How the values were obtained:
Vasopressin V1a receptor = Vasopressin V1a receptor (Homo sapiens, UniProt P37288); assay type: cell membranes, Membrane; conditions: hek293; note: in other assays of this panel Not Active means under 50% inhibition at 10 µM
[1] = target: T1, C-X-C chemokine receptor type 1 (Homo sapiens, UniProt P25024); note: in other assays of this panel Not Active means under 50% inhibition at 10 µM
T1 sequence (P25024 whole entry): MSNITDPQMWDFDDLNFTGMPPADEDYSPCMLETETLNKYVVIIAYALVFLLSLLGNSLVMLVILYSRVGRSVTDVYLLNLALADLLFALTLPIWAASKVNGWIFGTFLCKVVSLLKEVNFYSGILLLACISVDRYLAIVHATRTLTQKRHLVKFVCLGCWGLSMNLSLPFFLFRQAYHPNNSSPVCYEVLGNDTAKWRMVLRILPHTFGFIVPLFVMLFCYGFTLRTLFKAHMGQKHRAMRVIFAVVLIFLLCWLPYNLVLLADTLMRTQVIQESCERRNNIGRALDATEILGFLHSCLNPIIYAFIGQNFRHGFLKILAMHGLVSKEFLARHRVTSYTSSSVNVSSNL

[2] = target: Voltage-gated inwardly rectifying potassium channel KCNH2 (Homo sapiens, UniProt Q12809); conditions: hek293; note: in other assays of this panel Not Active means under 50% inhibition at 10 µM
Cytochrome P450 2C9 = Cytochrome P450 2C9 (Homo sapiens, UniProt P11712); conditions: bti-tn-5b1-4; note: in other assays of this panel Not Active means under 50% inhibition at 10 µM
Progesterone receptor = target: T2, Progesterone receptor (Bos taurus, UniProt Q690N0); test: DRUGMATRIX: Progesterone radioligand binding (ligand: [3H] R-5020); assay type: tissue-based, Uterus; conditions: Not Active = under 50% inhibition at 10 µM
T2 sequence (Q690N0 whole entry): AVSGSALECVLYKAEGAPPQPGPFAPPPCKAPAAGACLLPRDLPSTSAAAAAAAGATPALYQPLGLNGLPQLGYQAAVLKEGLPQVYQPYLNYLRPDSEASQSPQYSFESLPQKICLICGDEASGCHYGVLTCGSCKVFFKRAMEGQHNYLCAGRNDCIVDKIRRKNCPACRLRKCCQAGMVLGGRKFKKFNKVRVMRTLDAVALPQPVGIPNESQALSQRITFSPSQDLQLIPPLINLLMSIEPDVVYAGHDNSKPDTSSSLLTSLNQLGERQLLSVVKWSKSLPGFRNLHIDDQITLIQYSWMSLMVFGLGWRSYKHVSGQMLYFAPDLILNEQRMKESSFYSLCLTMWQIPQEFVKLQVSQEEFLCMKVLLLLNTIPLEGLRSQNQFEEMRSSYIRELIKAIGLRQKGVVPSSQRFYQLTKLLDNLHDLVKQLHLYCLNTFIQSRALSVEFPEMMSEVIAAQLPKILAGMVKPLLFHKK

[3] = target: Sigma non-opioid intracellular receptor 1 (Homo sapiens, UniProt Q99720); test: DRUGMATRIX: Sigma1 radioligand binding (ligand: [3H] Haloperidol); assay type: cell membranes, Jurkat, Membrane; conditions: jurkat; Not Active = under 50% inhibition at 10 µM
[4] = target: T3, Neuropeptide Y receptor type 2 (Homo sapiens, UniProt P49146); assay type: cell membranes, Membrane; conditions: kan-ts; note: in other assays of this panel Not Active means under 50% inhibition at 10 µM
T3 sequence (P49146 whole entry): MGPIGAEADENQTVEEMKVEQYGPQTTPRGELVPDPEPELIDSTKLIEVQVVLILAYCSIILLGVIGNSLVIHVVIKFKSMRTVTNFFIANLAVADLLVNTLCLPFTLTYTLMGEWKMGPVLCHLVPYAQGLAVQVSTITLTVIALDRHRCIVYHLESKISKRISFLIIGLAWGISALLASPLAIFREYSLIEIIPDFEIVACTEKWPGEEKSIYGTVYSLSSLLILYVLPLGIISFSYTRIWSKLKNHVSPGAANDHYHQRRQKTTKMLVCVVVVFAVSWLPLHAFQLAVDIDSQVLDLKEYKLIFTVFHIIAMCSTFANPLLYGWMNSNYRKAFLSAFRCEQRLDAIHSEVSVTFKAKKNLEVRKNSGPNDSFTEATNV

[5] = DRUGMATRIX: Glutamate, NMDA, Agonism radioligand binding (ligand: [3H] CGP-39653); assay type: cell membranes, Rattus norvegicus, Wistar, Cerebral cortex, Membrane; conditions: Not Active = under 50% inhibition at 10 µM

Chain of Sigma non-opioid intracellular receptor 1 (Q99720 whole entry): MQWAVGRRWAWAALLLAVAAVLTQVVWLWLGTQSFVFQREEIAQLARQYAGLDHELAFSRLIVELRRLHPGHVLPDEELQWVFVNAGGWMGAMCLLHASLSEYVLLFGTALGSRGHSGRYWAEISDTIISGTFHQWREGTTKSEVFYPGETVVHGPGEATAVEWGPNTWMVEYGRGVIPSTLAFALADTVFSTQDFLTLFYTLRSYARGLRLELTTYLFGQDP
Chain of Vasopressin V1a receptor (P37288 whole entry): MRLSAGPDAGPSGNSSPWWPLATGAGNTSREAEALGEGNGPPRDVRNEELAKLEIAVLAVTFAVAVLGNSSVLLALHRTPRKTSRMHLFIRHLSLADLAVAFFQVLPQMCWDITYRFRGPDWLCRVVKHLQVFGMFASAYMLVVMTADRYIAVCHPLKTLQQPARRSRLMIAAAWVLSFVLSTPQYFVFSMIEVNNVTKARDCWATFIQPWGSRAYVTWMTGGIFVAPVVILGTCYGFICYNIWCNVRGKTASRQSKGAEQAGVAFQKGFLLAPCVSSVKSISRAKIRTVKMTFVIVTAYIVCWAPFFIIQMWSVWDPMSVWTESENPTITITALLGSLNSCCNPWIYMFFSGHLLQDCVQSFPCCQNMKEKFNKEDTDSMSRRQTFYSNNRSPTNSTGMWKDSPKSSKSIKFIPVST
Chain of Cytochrome P450 2C9 (P11712 whole entry): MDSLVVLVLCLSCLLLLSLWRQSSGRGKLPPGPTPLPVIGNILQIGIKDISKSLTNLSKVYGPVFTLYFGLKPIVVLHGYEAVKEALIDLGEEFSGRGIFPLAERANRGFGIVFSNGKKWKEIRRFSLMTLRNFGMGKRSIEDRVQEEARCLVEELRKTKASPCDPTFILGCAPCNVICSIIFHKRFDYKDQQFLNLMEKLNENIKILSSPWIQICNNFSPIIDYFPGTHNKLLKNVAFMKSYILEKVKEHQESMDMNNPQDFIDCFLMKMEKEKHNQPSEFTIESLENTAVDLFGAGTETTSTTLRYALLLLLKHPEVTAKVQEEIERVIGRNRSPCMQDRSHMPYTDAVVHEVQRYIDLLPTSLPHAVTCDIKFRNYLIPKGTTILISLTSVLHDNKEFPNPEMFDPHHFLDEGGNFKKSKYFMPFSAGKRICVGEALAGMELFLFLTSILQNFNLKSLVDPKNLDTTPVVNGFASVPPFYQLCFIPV
Chain of Voltage-gated inwardly rectifying potassium channel KCNH2 (Q12809 whole entry): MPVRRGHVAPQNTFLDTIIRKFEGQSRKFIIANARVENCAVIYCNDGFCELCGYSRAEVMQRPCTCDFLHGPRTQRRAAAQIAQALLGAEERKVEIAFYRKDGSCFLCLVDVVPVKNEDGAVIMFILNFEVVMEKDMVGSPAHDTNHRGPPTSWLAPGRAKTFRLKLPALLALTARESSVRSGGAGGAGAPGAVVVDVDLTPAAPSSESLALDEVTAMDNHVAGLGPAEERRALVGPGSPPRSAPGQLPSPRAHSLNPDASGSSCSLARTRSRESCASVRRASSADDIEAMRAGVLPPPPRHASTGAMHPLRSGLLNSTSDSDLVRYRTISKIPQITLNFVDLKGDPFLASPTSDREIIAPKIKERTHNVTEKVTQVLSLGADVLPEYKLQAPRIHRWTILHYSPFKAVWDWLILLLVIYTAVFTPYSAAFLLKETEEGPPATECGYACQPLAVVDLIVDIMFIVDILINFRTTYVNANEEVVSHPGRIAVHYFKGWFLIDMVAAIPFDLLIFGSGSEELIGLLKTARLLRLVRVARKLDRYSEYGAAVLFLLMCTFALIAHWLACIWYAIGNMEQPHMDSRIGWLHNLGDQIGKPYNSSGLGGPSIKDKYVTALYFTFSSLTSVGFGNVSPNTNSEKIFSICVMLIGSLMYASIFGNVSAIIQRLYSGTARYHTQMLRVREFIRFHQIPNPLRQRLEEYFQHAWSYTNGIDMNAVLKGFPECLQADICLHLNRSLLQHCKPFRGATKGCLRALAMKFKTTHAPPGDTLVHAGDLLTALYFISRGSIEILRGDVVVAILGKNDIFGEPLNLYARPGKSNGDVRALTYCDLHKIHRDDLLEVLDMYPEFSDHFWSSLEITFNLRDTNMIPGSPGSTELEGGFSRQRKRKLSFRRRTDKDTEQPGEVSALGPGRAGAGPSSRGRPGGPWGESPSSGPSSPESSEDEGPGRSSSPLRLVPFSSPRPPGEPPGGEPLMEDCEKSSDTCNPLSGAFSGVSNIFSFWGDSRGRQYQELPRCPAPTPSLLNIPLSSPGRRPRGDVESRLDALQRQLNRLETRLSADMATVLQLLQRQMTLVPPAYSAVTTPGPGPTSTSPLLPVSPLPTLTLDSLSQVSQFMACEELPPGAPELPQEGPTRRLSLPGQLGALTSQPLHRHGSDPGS

O=C1CC[C@H](N2C(=O)c3ccccc3C2=O)C(=O)N1
Not Active: IC50 (Vasopressin V1a receptor) | IC50 [1] | IC50 [2] | Ki [2] | IC50 (Cytochrome P450 2C9) | Ki (Cytochrome P450 2C9) | IC50 (Progesterone receptor) | IC50 [3] | IC50 [4] | IC50 [5] | Ki [5]

C[C@@H](O)[C@H](CO)NC(=O)[C@@H]1CSSC[C@H](NC(=O)[C@H](N)Cc2ccccc2)C(=O)N[C@@H](Cc2ccccc2)C(=O)N[C@H](Cc2c[nH]c3ccccc23)C(=O)N[C@@H](CCCCN)C(=O)N[C@@H]([C@@H](C)O)C(=O)N1 (H-[dF]CF[dW]KTC-{Threoninol(2S,3R)}; disulfide 2-7)
Not Active: IC50 (Vasopressin V1a receptor) | IC50 [1] | IC50 [2] | Ki [2] | IC50 (Cytochrome P450 2C9) | Ki (Cytochrome P450 2C9) | IC50 (Progesterone receptor) | IC50 [3] | IC50 [4] | IC50 [5] | Ki [5]

S=C=Nc1cccc2ccccc12 [1-NAPHTHYLISOTHIOCYANATE]
Not Active: IC50 (Vasopressin V1a receptor) | IC50 [1] | IC50 [2] | Ki [2] | IC50 (Cytochrome P450 2C9) | Ki (Cytochrome P450 2C9) | IC50 (Progesterone receptor) | IC50 [3] | IC50 [4] | IC50 [5] | Ki [5]

C[C@](O)(CS(=O)(=O)c1ccc(F)cc1)C(=O)Nc1ccc(C#N)c(C(F)(F)F)c1 [(R)-BICALUTAMIDE]
Not Active: IC50 (Vasopressin V1a receptor) | IC50 [1] | IC50 [2] | Ki [2] | IC50 (Cytochrome P450 2C9) | Ki (Cytochrome P450 2C9) | IC50 (Progesterone receptor) | IC50 [3] | IC50 [4] | IC50 [5] | Ki [5]

CC(=O)Nc1ccc(O)cc1 [ACETAMINOPHEN]
Not Active: IC50 (Vasopressin V1a receptor) | IC50 [1] | IC50 [2] | Ki [2] | IC50 (Cytochrome P450 2C9) | Ki (Cytochrome P450 2C9) | IC50 (Progesterone receptor) | IC50 [3] | IC50 [4] | IC50 [5] | Ki [5]

COc1cc2c(c3oc(=O)c4c(c13)CCC4=O)[C@@H]1C=CO[C@@H]1O2 [AFLATOXIN]
Not Active: IC50 (Vasopressin V1a receptor) | Ki (Vasopressin V1a receptor) | IC50 [1] | Ki [1] | IC50 [2] | Ki [2] | IC50 (Cytochrome P450 2C9) | Ki (Cytochrome P450 2C9) | IC50 (Progesterone receptor) | Ki (Progesterone receptor) | IC50 [3] | Ki [3] | IC50 [4] | Ki [4] | IC50 [5] | Ki [5]

N=C(N)NC(=O)c1nc(Cl)c(N)nc1N [AMILORIDE]
Not Active: IC50 (Vasopressin V1a receptor) | IC50 [1] | IC50 [2] | Ki [2] | IC50 (Cytochrome P450 2C9) | Ki (Cytochrome P450 2C9) | IC50 (Progesterone receptor) | IC50 [3] | IC50 [4] | IC50 [5] | Ki [5]

CN1C(=O)COc2c(C(=O)NC3CN4CCC3CC4)cc(Cl)cc21 (stereo not given) [AZASETRON]
Not Active: IC50 (Vasopressin V1a receptor) | IC50 [1] | IC50 [2] | Ki [2] | IC50 (Cytochrome P450 2C9) | Ki (Cytochrome P450 2C9) | IC50 (Progesterone receptor) | IC50 [3] | IC50 [4] | IC50 [5] | Ki [5]

C[C@H]1C[C@H]2[C@@H]3CCC4=CC(=O)C=C[C@]4(C)[C@@]3(Cl)[C@@H](O)C[C@]2(C)[C@@]1(O)C(=O)CO [BECLOMETHASONE]
Not Active: IC50 (Vasopressin V1a receptor) | IC50 [1] | IC50 [2] | Ki [2] | IC50 (Cytochrome P450 2C9) | Ki (Cytochrome P450 2C9) | IC50 (Progesterone receptor) | IC50 [3] | IC50 [4] | IC50 [5] | Ki [5]

CCOC(=O)[C@H](CCc1ccccc1)N[C@H]1CCc2ccccc2N(CC(=O)O)C1=O [BENAZEPRIL]
Not Active: IC50 (Vasopressin V1a receptor) | IC50 [1] | IC50 [2] | Ki [2] | IC50 (Cytochrome P450 2C9) | Ki (Cytochrome P450 2C9) | IC50 (Progesterone receptor) | IC50 [3] | IC50 [4] | IC50 [5] | Ki [5]

Nc1c(CC(=O)O)cccc1C(=O)c1ccc(Br)cc1 [BROMFENAC]
Not Active: IC50 (Vasopressin V1a receptor) | IC50 [1] | IC50 [2] | Ki [2] | IC50 (Cytochrome P450 2C9) | Ki (Cytochrome P450 2C9) | IC50 (Progesterone receptor) | IC50 [3] | IC50 [4] | IC50 [5] | Ki [5]

CCCCN1CCCCC1C(=O)Nc1c(C)cccc1C.Cl (stereo not given) [BUPIVACAINE HYDROCHLORIDE]
Not Active: IC50 (Vasopressin V1a receptor) | IC50 [1] | IC50 [2] | Ki [2] | IC50 (Cytochrome P450 2C9) | Ki (Cytochrome P450 2C9) | IC50 (Progesterone receptor) | IC50 [3] | IC50 [4] | IC50 [5] | Ki [5]

C[C@@]12C(=O)OC(=O)[C@]1(C)[C@H]1CC[C@@H]2O1 [CANTHARIDIN]
Not Active: IC50 (Vasopressin V1a receptor) | IC50 [1] | IC50 [2] | Ki [2] | IC50 (Cytochrome P450 2C9) | Ki (Cytochrome P450 2C9) | IC50 (Progesterone receptor) | IC50 [3] | IC50 [4] | IC50 [5] | Ki [5]

ClC(Cl)Cl [CHLOROFORM]
Not Active: IC50 (Vasopressin V1a receptor) | IC50 [1] | IC50 [2] | Ki [2] | IC50 (Cytochrome P450 2C9) | Ki (Cytochrome P450 2C9) | IC50 (Progesterone receptor) | IC50 [3] | IC50 [4] | IC50 [5] | Ki [5]

C[N+](C)(C)CCO.[Cl-] [CHOLINE CHLORIDE]
Not Active: IC50 (Vasopressin V1a receptor) | IC50 [1] | IC50 [2] | Ki [2] | IC50 (Cytochrome P450 2C9) | Ki (Cytochrome P450 2C9) | IC50 (Progesterone receptor) | IC50 [3] | IC50 [4] | IC50 [5] | Ki [5]

CC(=O)OCC(=O)[C@@]1(O)CC[C@H]2[C@@H]3CCC4=CC(=O)CC[C@]4(C)[C@H]3C(=O)C[C@@]21C [CORTISONE ACETATE]
Not Active: IC50 (Vasopressin V1a receptor) | IC50 [1] | IC50 [2] | Ki [2] | IC50 (Cytochrome P450 2C9) | Ki (Cytochrome P450 2C9) | IC50 (Progesterone receptor) | IC50 [3] | IC50 [4] | IC50 [5] | Ki [5]

O=c1ccc2ccccc2o1 [COUMARIN]
Not Active: IC50 (Vasopressin V1a receptor) | IC50 [1] | IC50 [2] | Ki [2] | IC50 (Cytochrome P450 2C9) | Ki (Cytochrome P450 2C9) | IC50 (Progesterone receptor) | IC50 [3] | IC50 [4] | IC50 [5] | Ki [5]

COc1ccc2c(c1)[C@]13CCCC[C@@H]1[C@H](C2)N(C)CC3 [DEXTROMETHORPHAN]
Not Active: IC50 (Vasopressin V1a receptor) | IC50 [1] | IC50 [2] | Ki [2] | IC50 (Cytochrome P450 2C9) | Ki (Cytochrome P450 2C9) | IC50 (Progesterone receptor) | IC50 [3] | IC50 [4] | IC50 [5] | Ki [5]

CC(=O)Nc1c(I)c(NC(C)=O)c(I)c(C(=O)O)c1I [DIATRIZOIC ACID]
Not Active: IC50 (Vasopressin V1a receptor) | IC50 [1] | IC50 [2] | Ki [2] | IC50 (Cytochrome P450 2C9) | Ki (Cytochrome P450 2C9) | IC50 (Progesterone receptor) | IC50 [3] | IC50 [4] | IC50 [5] | Ki [5]

COP(=O)(OC)OC=C(Cl)Cl [DICHLORVOS]
Not Active: IC50 (Vasopressin V1a receptor) | IC50 [1] | IC50 [2] | Ki [2] | IC50 (Cytochrome P450 2C9) | Ki (Cytochrome P450 2C9) | IC50 (Progesterone receptor) | IC50 [3] | IC50 [4] | IC50 [5] | Ki [5]
